Converted amounts (≈) assume the structure as drawn.
Tests used:
[1] = Determination of solubility; assay type: physicochemical; conditions: aqueous buffer at pH 7.4
Description: Determination of Solubility
Solubility of the compounds was determined by preparing a saturated solution of compound in 0.3 M phosphate buffer (pH 7.4±0.3) in a brown glass tube. The suspensions were rotated slowly for 24 hours. Aliquots were centrifuged for 10 minutes at 14.000 rpm and supernatants were diluted in 40% (v/v) acetonitrile in water prior to HPLC analysis. Concentrations of analytes were quantified against a standard curve and used as term of solubility. The HPLC-UV method used for the assessment of solubility is the same as used in the in vitro metabolism assay.

[2] = system: Plasmodium falciparum 3D7; assay: Plasmodium falciparum assay; assay type: cell-based; conditions: Plasmodium falciparum 3D7 (Table 2); read-out: IC50
[3] = system: Eschericia coli ESS; assay: MIC determination in broth microdilution assay; conditions: for MIC: H: Eschericia coli ESS
[4] = system: Staphylococcus aureus ATCC29213; assay: MIC determination in broth microdilution assay; conditions: A: Staphylococcus aureus ATCC29213
[5] = system: Eschericia coli ATCC25922; assay: MIC determination in broth microdilution assay; conditions: for MIC: G: Eschericia coli ATCC25922
[6] = Determination of metabolic stability (liver microsomes); assay type: in vitro ADME; conditions: rat liver microsomes, 20 μM, 15 min
Description: Determination of Metabolic Stability
Incubations were performed with Wistar rat liver microsomes (0.25 mg/ml) in 2% sodium bicarbonate solution. NADP (0.13 mg/ml), glucose-6-phosphate (0.63 mg/ml) and glucose-6-phosphate dehydrogenase (0.38 units/ml) were used as NADPH generation system and UDPGA (0.48 mg/ml) was added to include the phase II reaction, glucuronic acid conjugation, in the assay. After 5 minutes of pre-incubation the reaction was started by addition of the test article to give a final concentration of 20 μM. Samples were incubated for 15 min at 37° C. and the reactions were terminated by addition of equal volumes of acetonitrile. Blank incubations were performed at the same concentration but without addition of microsomes. Both blank and microsome-containing samples were made in replicats of three. Prior to analysis samples were centrifuged for 10 min. at 3500 rpm,HPLC system:
Initial conditions were 40% mobile phase A (acetonitrile) and 60% mobile phase B (10 mM ammonium acetate pH 9.5). During the first 20 minutes, the mobile phase was changed via a linear gradient to 90% A and 10% B. This was followed by a 5 minutes linear gradient to initial conditions, which were maintained for 5 min. The flow rate was 0.20 m)/min and injection volume 10 μl.

[7] = system: Staphylococcus aureus ATCC33591(resistant to methicillin); assay: MIC determination in broth microdilution assay; conditions: B: Staphylococcus aureus ATCC33591(resistant to methicillin)
[8] = system: Enterococcus faecium #17501 (vancomycin-resistant clinical isolate); assay: MIC determination in broth microdilution assay; conditions: E: Enterococcus faecium #17501 (vancomycin-resistant)
[9] = system: Enterococcus faecalis ATCC29212; assay: MIC determination in broth microdilution assay; conditions: D: Enterococcus faecalis ATCC29212
[10] = system: dihydroorotate dehydrogenase (DHODH); assay: DHODH assay; assay type: biochemical; conditions: at 10 μM
Description: 100 μl chalcone or 0.1 M Tris-HCl pH 8.0 is added to a well in a 96-wells microtiter plate. Then 50 μl enzyme dilution is added. The microtiter plate is placed in the Powerwavex340 and the enzymatic reactions starts when adding 100 μl assay mixture. The reaction are measured every 20 sec. for 10 min. The samples with chalcones are compared with the samples with 0.1 M Tris-HCl pH 8.0 and the percent inhibition is calculated.
Enzyme dilution: The solution of recombinant purified enzyme is dissolved in 0.1 M Tris-HCl pH 8 to give an initial velocity of 0.04-0.05 ΔA/min.
2,6-dichlorophenolindophenol (DCIP)-stock solution: 40 mg DCIP and 10 ml 99% Ethanol are mixed for 10 min at RT. Then 100 μl 1.0 M Tris-HCl pH 8 and miliQ H2O are added to a final volume of 100 ml. The A600 of the DCIP-stock solution are measured in a microtiter plate on the Powerwavex340 (Bio-Tek instruments,Inc.)
[…]: 25 mM dihydroorotate stock-solution is prepared by first dissolving in the same amount of mol NaOH and then miliQ H2O is added to the final volume.
Assay mix (10 ml solution): 600 μl of DHODH-stock solution and X ml (depending on the A600 value of stock-solution) DCIP to a final A600=2.5 are mixed. Then 0.1 M Tris-HCl pH 8.0 are added to a final volume of 10 ml.
Preparation of compound soluton: A 10 mM stock-solution of compound (e.g. a chalcone derivative) is made in dimethylsulfoxid (DMSO). The compound is then diluted in 0.1 M Tris-HCl pH 8 to the test concentrations. The final DMSO concentration in the sample is 10%

[11] = system: panel of 10 different non-fastidious bacteria; assay: Screening against panel of non-fastidious bacteria
[12] = system: Bacteroides fragilis, Clostridium perfringens, Clostridium difficele; assay type: cell-based; conditions: single concentration of compound (100 μM)
[13] = system: L. major promastigotes; assay: Leishmania promastigote assay

COc1ccc(C(=O)C=Cc2cc(-c3ccccc3Cl)ccc2OCCN(C)C)c(OC)c1OC [Compound C018, (E)-3-[2′-Chloro-4-(2-dimethylamino-ethoxy)-biphenyl-3-yl]-1-(2,3,4-trimethoxy-phenyl)-propenone]
Solubility [1]: 1.5 mg/mL (≈ 3.02 mM)

COc1ccccc1-c1ccc(OCCN(C)C)c(/C=C/C(=O)c2ccccc2CN(C)C)c1 [Compound C036, (E)-3-[4-,(2-Dimethylamino-ethoxy)-2′-methoxy-biphenyl-3-yl]-1-(2-dimethylaminomethyl-phenyl)-propenone]
Solubility [1]: 1.8 mg/mL (≈ 3.92 mM) | IC50 [2]: 200 nM

Cc1cc(C)cc(-c2ccc(OCCN(C)C)c(/C=C/C(=O)c3cccc(NCCN(C)C)c3)c2)c1 [Compound C075, (E)-3-[4-(2-Dimethylamino-ethoxy)-3′,5′-dimethyl-biphenyl-3-yl]-1-[3-(2-dimethylamino-ethylamino)-phenyl]-propenone]
Solubility [1]: 4.1 mg/mL (≈ 8.44 mM) | activity against ESS strain of E.coli [3]: high activity | MIC [3]: 4.7 µM (≈ 2.28 µg/mL) | MIC [4]: 4.7 µM (≈ 2.28 µg/mL) | activity against E coli ATCC25922 [5]: high activity | MIC [5]: 9.4 µM (≈ 4.57 µg/mL) | Metabolic turn-over in vitro [6]: 8% | IC50 [2]: 500 nM | MIC [7]: 4.7 µM (≈ 2.28 µg/mL) | MIC [8]: 9.4 µM (≈ 4.57 µg/mL) | MIC [9]: 9.4 µM (≈ 4.57 µg/mL)

COc1ccc(C(=O)/C=C/c2ccccc2)cc1 [4′MC, 4′-methoxy chalcone, reference compound]
Inhibition of DHODH [10]: 7% | antibacterial effect [11]: no antibacterial effect at all

Cc1cc(C)cc(-c2ccc(OCCN(C)C)c(/C=C/C(=O)c3ccccc3NCCN(C)C)c2)c1 [Compound C074, (E)-3-[4-(2-Dimethylamino-ethoxy)-3′,5′-dimethyl-biphenyl-3-yl]-1-[2-(2-dimethylamino-ethylamino)-phenyl]-propenone]
activity against ESS strain of E.coli [3]: high activity | MIC [3]: 4.7 µM (≈ 2.28 µg/mL) | MIC [4]: 9.4 µM (≈ 4.57 µg/mL) | activity against E coli ATCC25922 [5]: high activity | MIC [5]: 9.4 µM (≈ 4.57 µg/mL) | Metabolic turn-over in vitro [6]: 7% | activity against anaerobic bacteria [12]: activity against all microorganisms within the test panel | MIC [7]: 9.4 µM (≈ 4.57 µg/mL) | MIC [8]: 9.4 µM (≈ 4.57 µg/mL) | MIC [9]: 9.4 µM (≈ 4.57 µg/mL)

CN(C)CCOc1ccc(-c2ccccc2)cc1/C=C/C(=O)c1cccc(CN(C)C)c1 [Compound C037, (E)-3-[4-(2-Dimethylamino-ethoxy)-biphenyl-3-yl]-1-(3-dimethylaminomethyl-phenyl)-propenone]
Solubility [1]: 1.5 mg/mL (≈ 3.5 mM) | IC50 ([13]; L. major): 500 nM | potency against Gram-positive pathogens in comparison with Licochalcone A [11]: increased potency

COc1ccc(C(=O)/C=C/c2cc(-c3cc(C)cc(C)c3)ccc2OCCN(C)C)c(OC)c1OC [Compound C025, (E)-3-[4-(2-Dimethylamino-ethoxy)-3′,5′-dimethyl-biphenyl-3-yl]-1-(2,3,4-trimethoxy-phenyl)-propenone]
activity against anaerobic bacteria [12]: activity against all microorganisms within the test panel

Cc1ccccc1-c1ccc(OCCN(C)C)c(/C=C/C(=O)c2ccc(O)c(CN(C)C)c2)c1 [Compound C108, (E)-3-[4-(2-Dimethylamino-ethoxy)-2′-methyl-biphenyl-3-yl]-1-(3-dimethylaminomethyl-4-hydroxy-phenyl)-propenone]
Solubility [1]: 18.1 mg/mL (≈ 39.5 mM)

Cc1ccccc1-c1ccc(OCCN(C)C)c(CCC(=O)c2ccccc2CN(C)C)c1 [Compound C073, 3-[4-(2-Dimethylamino-ethoxy)-2′-methyl-biphenyl-3-yl]-1-(2-dimethylaminomethyl-phenyl)-propan-1-one]
solubility at 24 h ([1]; 0.3 M phosphate buffer, thermodynamic from solid): > 10000 µg/mL

COc1ccc(C(=O)/C=C/c2cc(-c3ccccc3C)ccc2OCCN(C)C)cc1 [Compound C019, (E)-3-[4-(2-Dimethylamino-ethoxy)-2′-methyl-biphenyl-3-yl]-1-(4-methoxy-phenyl)-propenone]
Inhibition of DHODH [10]: 18% | times more potent than LicA ([13]; dose-respons curve at Leishmania Major, FIG. 5): 100 times

COc1ccc(C(=O)/C=C/c2cc(-c3ccccc3OC)ccc2OCCN(C)C)c(F)c1 [Compound C015, (E)-3-[4-(2-Dimethylamino-ethoxy)-2′-methoxy-biphenyl-3-yl]-1-(2-fluoro-4-methoxy-phenyl)-propenone]
activity against anaerobic bacteria [12]: activity against all microorganisms within the test panel | IC50 ([13]; L. major): 100 nM | potency against Gram-positive pathogens in comparison with Licochalcone A [11]: increased potency

Cc1cc(C)cc(-c2ccc(OCCN(C)C)c(C=CC(=O)c3cccc(F)c3)c2)c1 [Compound C079, (E)-3-[4-(2-Dimethylamino-ethoxy)-3′,5′-dimethyl-biphenyl-3-y]-1-(3-fluoro-phenyl)-propenone]
activity against anaerobic bacteria [12]: activity against all microorganisms within the test panel

Cc1ccccc1-c1ccc(OCCN2CCCC2)c(/C=C/C(=O)c2ccccc2CN(C)C)c1 [Compound C136, (E)-1-(2-Dimethylaminomethyl-phenyl)-3-[2′-methyl-4-(2-pyrrolidin-1-yl-ethoxy)-biphenyl-3-yl]-propenone]
Solubility [1]: 5.5 mg/mL (≈ 11.7 mM)

COc1ccc(C(=O)/C=C/c2cc(-c3ccccc3C)ccc2OCCN(C)C)c(Cl)c1 [Compound C022, (E)-1-(2-Chloro-4-methoxy-phenyl)-3-[4-(2-dimethylamino-ethoxy)-2′-methyl-biphenyl-3-yl]-propenone]
Inhibition of DHODH [10]: 21%

CN(C)CCOc1ccc(C(C)(C)C)cc1/C=C/C(=O)c1ccccc1NS(=O)(=O)c1ccccc1 [Compound C027, N-(2-{3-[5-tert-Butyl-2-(2-dimethylamino-ethoxy)-phenyl]-(E)-acryloyl}-phenyl)-benzenesulfonamide]
Inhibition of DHODH [10]: 22%

COc1ccc(C(=O)/C=C/c2cc(-c3ccccc3C)ccc2OCCN(C)C)c(F)c1 [Compound C020, (E)-3-[4-(2-Dimethylamino-ethoxy)-2′-methyl-biphenyl-3-yl]-1-(2-fluoro-4-methoxy-phenyl)-propenone]
Inhibition of DHODH [10]: 18% | IC50 ([13]; L. major): 30 nM

CN(C)CCCOc1ccc(C(C)(C)C)cc1/C=C/C(=O)c1ccccc1NS(=O)(=O)c1ccccc1 [Compound C042, N-(2-{3-[5-tert-Butyl-2-(3-dimethylamino-propoxy)-phenyl]-(E)-acryloyl}-phenyl)-benzenesulfonamide]
activity against anaerobic bacteria [12]: activity against all microorganisms within the test panel | IC50 ([13]; Leishmania major): 200 nM | potency against Gram-positive pathogens in comparison with Licochalcone A [11]: increased potency

Source: patent US7423181B2, “Aminoalkoxy-functional chalcones” (Lica Pharmaceuticals A/S, priority 2002, dated 2008)
